Test: method code SF-TN, from DOI: 10.1007/bf00773207

| SMILES | logP |
| --- | --- |
| Cc1cc(C)cc(Nc2cc(Cl)ccc2C(=O)O)c1 | 5.48 |
| O=C(O)c1ccccc1Nc1ccc(Cl)cc1 | 4.24 |
| O=C(O)c1ccccc1Nc1ccccc1 | 3.52 |
| O=C(O)c1ccc(Cl)cc1Nc1ccc([N+](=O)[O-])cc1 | 4.04 |
| Cc1ccccc1Nc1ccccc1C(=O)O | 4.01 |
| COc1ccc(Nc2ccccc2C(=O)O)cc1 | 3.68 |
| O=C(O)c1ccccc1Nc1ccccc1Cl | 3.94 |
| Cc1ccc(Nc2ccccc2C(=O)O)cc1 | 4.09 |
| COc1ccccc1Nc1cc(Cl)ccc1C(=O)O | 4.32 |
| COc1ccccc1Nc1ccccc1C(=O)O | 3.6 |

Now from value to compound:

| logP | SMILES |
| --- | --- |
| 5 | O=C(O)c1ccc(Cl)cc1Nc1cccc(Cl)c1 |
| 4.73 | Cc1ccccc1Nc1cc(Cl)ccc1C(=O)O |
| 4.97 | O=C(O)c1ccc(Cl)cc1Nc1ccc(Cl)cc1 |
| 4.41 | COc1ccc(Nc2cc(Cl)ccc2C(=O)O)cc1 |
| 4.25 | O=C(O)c1ccc(Cl)cc1Nc1ccccc1 |
| 4.05 | O=C(O)c1ccc(Cl)cc1Nc1cccc([N+](=O)[O-])c1 |
| 4.81 | Cc1ccc(Nc2cc(Cl)ccc2C(=O)O)cc1 |
| 5.37 | O=C(O)c1ccc(Cl)cc1Nc1ccc(I)cc1 |
| 5.43 | Cc1ccc(Nc2cc(Cl)ccc2C(=O)O)cc1C |
| 4.67 | O=C(O)c1ccc(Cl)cc1Nc1ccccc1Cl |
| 5.16 | O=C(O)c1ccc(Cl)cc1Nc1cccc(Br)c1 |
